According to the supplement of paper PMC4862054:

Legend:
Settings in all cases: 72 h
[1] = system: CAL-85-1
Method: (§1)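 Drug sensitivity and resistance testing (DSRT) of breast cancer cell lines in 384-well plates, 5 concentrations in 10-fold dilutions over a compound-specific 10,000-fold range. After 72 h, cytotoxicity was read by CellTox Green fluorescence and viability by CellTiter-Glo luminescence (multiplexed), normalised to DMSO and benzethonium chloride controls. EC50 is the inflection point of the fitted dose-response curve (bottom asymptote free, so it can be relative for partial curves) and is censored at the highest tested concentration. Rows with DSS 0 (no meaningful response) were excluded.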

[2] = system: HDQ-P1
Method: as §1

[3] = system: MDA-MB-231
Method: as §1

[4] = system: Hs578T
Method: as §1

[5] = system: HCC1599
Method: as §1

[6] = system: CAL-51
Method: as §1

[7] = system: MCF-10A
Method: as §1

[8] = system: BT-549
Method: as §1

[9] = system: HCC1143
Method: as §1

[10] = system: BT-474
Summary of the method: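 Breast cancer cell lines in 20 µl suspension were seeded onto 384-well plates that already held compound dissolved in 5 µl medium and were incubated for 72 h. Viability was measured by adding 2.5 µl CellTiter-Blue for 2 h at 37 °C and reading fluorescence at 560/590 nm. Each plate was normalised to vehicle and a positive kill control and checked by Z'-factor. EC50 was taken from a fitted percent-inhibition dose-response curve, censored at the highest concentration, and rows with a drug sensitivity score of zero were removed.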

[11] = system: BT-474; remark: listed apart in the source
Method: as §1

[12] = system: CAL-148
Method: as §1

[13] = system: MFM-223
Method: as §1

[14] = system: MDA-MB-468
Method: as §1

[15] = system: HCC1937
Method: as §1

[16] = system: CAL-120
Method: as §1

[17] = system: DU-4475
Method: as §1

[18] = system: MDA-MB-436
Method: as §1

[19] = system: MDA-MB-453
Method: as §1

SMILES	EC50, CellTox Green [1] [nM]	EC50, CellTox Green [2] [nM]	EC50, CellTox Green [3] [nM]	EC50, CellTox Green [4] [nM]	EC50, CellTox Green [6] [nM]	EC50, CellTox Green [7] [nM]	EC50, CellTiter-Blue viability [10] [nM]	EC50, CellTox Green [11] [nM]	EC50, CellTox Green [12] [nM]	EC50, CellTox Green [13] [nM]	EC50, CellTox Green [14] [nM]	EC50, CellTox Green [18] [nM]	other results
CN(c1ccccc1CNc1nc(Nc2ccc3c(c2)CC(=O)N3)ncc1C(F)(F)F)S(C)(=O)=O	4490	20.9	1820	1290	201	1730	–	–	–	–	–	–	EC50, CellTox Green [5]: > 10000 nM; EC50, CellTox Green [8]: > 10000 nM; EC50, CellTox Green [9]: 72.4 nM
COc1ncc(-c2ccc3nccc(-c4ccnnc4)c3c2)cc1NS(=O)(=O)c1ccc(F)cc1F	–	–	157	511	91.7	349	13.5	134	74.7	22.4	160	–	EC50, CellTox Green [15]: 299 nM
C[C@@]1(C(=O)Nc2ccc(F)nc2)CCCN1c1nc(Nc2cc(C3CC3)n[nH]2)c2cccn2n1	–	5000	1980	–	824	3230	–	–	> 10000	587	3.79	–	EC50, CellTox Green [16]: 4500 nM; EC50, CellTox Green [9]: 1350 nM
COc1c(C)cnc(Cn2cnc3c(Cl)nc(N)nc32)c1C [BIIB021]	3950	1960	928	321	758	189	93.7	1790	84.5	–	–	–	EC50, CellTox Green [17]: 293 nM
CC(C)C[C@H](NC(=O)[C@H](Cc1ccccc1)NC(=O)c1cnccn1)B(O)O [Bortezomib]	5.02	15	13.9	11.7	27.5	210	7.19	32.8	17.2	13	1.94	32.4	EC50, CellTox Green [17]: 229 nM; EC50, CellTox Green [19]: 156 nM; EC50, CellTox Green [8]: 49.3 nM; EC50, CellTox Green [16]: 43.8 nM; EC50, CellTox Green [15]: 11.3 nM; EC50, CellTox Green [9]: 165 nM
C#Cc1cccc(Nc2ncnc3cc(OC)c(OCCCCCCC(=O)NO)cc23)c1 [CUDC-101]	208	–	403	6670	2460	8030	474	2720	1700	1600	775	792	EC50, CellTox Green [19]: 271 nM; EC50, CellTox Green [16]: 5100 nM
COc1cccc2c1C(=O)c1c(O)c3c(c(O)c1C2=O)C[C@@](O)(C(C)=O)C[C@@H]3O[C@H]1C[C@H](N)[C@H](O)[C@H](C)O1 [Daunorubicin]	–	–	–	–	183	–	160	–	–	–	100	953	–
O=c1[nH]c(=O)n([C@H]2C[C@H](O)[C@@H](CO)O2)cc1F [Floxuridine]	4650	3070	–	–	734	–	–	–	–	–	–	–	–
O=c1[nH]cc(F)c(=O)[nH]1 [Fluorouracil]	–	–	–	–	–	–	–	–	–	–	–	7050	–
COC1=C2C[C@@H](C)C[C@H](OC)[C@H](O)[C@@H](C)/C=C(\C)[C@H](OC(N)=O)[C@@H](OC)/C=C\C=C(/C)C(=O)NC(=CC1=O)C2=O [Geldanamycin]	2570	–	4120	–	8440	2370	62	6830	–	8020	59.8	–	EC50, CellTox Green [17]: 4720 nM; EC50, CellTox Green [15]: 2450 nM
Cn1cnc2c(F)c(Nc3ccc(Br)cc3F)c(C(=O)NOCCO)cc21 [MEK-162]	–	123	–	–	–	–	–	–	–	–	–	–	EC50, CellTox Green [17]: 508 nM
CCOc1cc2ncc(C#N)c(Nc3ccc(OCc4ccccn4)c(Cl)c3)c2cc1NC(=O)/C=C/CN(C)C [Neratinib]	211	–	–	–	–	–	–	–	791	–	149	–	–
COc1ccc(C2=N[C@@H](c3ccc(Cl)cc3)[C@@H](c3ccc(Cl)cc3)N2C(=O)N2CCNC(=O)C2)c(OC(C)C)c1 [Nutlin-3]	–	–	–	–	252	–	–	–	9050	–	–	–	–
COC(=O)C[C@](O)(CCCC(C)(C)O)C(=O)O[C@@H]1C(OC)=C[C@]23CCCN2CCc2cc4c(cc2[C@H]13)OCO4 [Omacetaxine]	41.7	689	620	40.8	–	770	92.8	5890	2670	63.7	388	7440	EC50, CellTox Green [8]: 260 nM
CC(=O)O[C@H]1C(=O)[C@@]2(C)[C@H]([C@H](OC(=O)c3ccccc3)[C@]3(O)C[C@H](OC(=O)[C@H](O)[C@@H](NC(=O)c4ccccc4)c4ccccc4)C(C)=C1C3(C)C)[C@]1(OC(C)=O)CO[C@@H]1C[C@@H]2O [Paclitaxel]	2.42	–	8.57	4.11	2.93	16.8	8.24	11.5	1.16	3.4	4.52	66.5	EC50, CellTox Green [8]: 6.52 nM
O=C(c1ccc(OCCN2CCCCC2)cc1)c1c(-c2ccc(O)cc2)sc2cc(O)ccc12 [Raloxifene]	–	> 10000	–	–	–	–	–	–	–	–	–	–	EC50, CellTox Green [5]: > 10000 nM
Cn1c(=O)c(F)c(Nc2ccc(I)cc2F)c2c(=O)n(C[C@@H](O)CO)cnc21 [TAK-733]	181	–	54.6	–	–	–	–	–	–	–	–	–	EC50, CellTox Green [17]: 29.1 nM; EC50, CellTox Green [16]: > 1000 nM
CCS(=O)(=O)c1cccc(-c2cc(C(=O)NC3CCN(C)CC3)c(C)c3[nH]c4ncc(C)cc4c23)c1 [TAK-901]	–	–	184	–	–	–	–	–	–	–	–	–	EC50, CellTox Green [8]: 871 nM
Cc1cc(C(C)Nc2ccccc2)c2nc(N3CCOCC3)cc(=O)n2c1 (stereo not given) [TGX-221]	–	1	> 10000	–	–	–	–	–	–	–	–	–	–
FC(F)c1nc2ccccc2n1-c1nc(N2CCOCC2)nc(N2CCOCC2)n1 [ZSTK474]	–	–	–	–	–	–	–	> 10000	–	1780	–	–	–
